{"source": "patent US10266544B2", "about": "“Aryl substituted aminomethyl spectinomycin analogs as antibacterial agents” (ST. JUDE CHILDREN'S RESEARCH HOSPITAL, INC., priority 2013, dated 2019)", "key": {"[1]": {"tested_on": "S. pneumoniae", "assay": "Resistance frequency determination and cross resistance of spontaneous mutants", "type": "cell-based, Streptococcus pneumoniae", "settings": "cross resistance testing of 2 mutants"}, "[2]": {"tested_on": "Moraxella catarrhalis", "assay": "MIC determination (Table 6)", "type": "cell-based"}, "[3]": {"tested_on": "Streptococcus pneumoniae (R6)", "assay": "MIC determination, microbroth dilution", "type": "cell-based"}, "[4]": {"tested_on": "Enterococcus faecalis (ATCC 33186)", "assay": "MIC determination, microbroth dilution", "type": "cell-based", "settings": "ATCC33186; Enterococcus faecalis (ATCC 33186); read-out: MIC E.f."}, "[5]": {"tested_on": "MRSA, Staphylococcus aureus (NRS70)", "assay": "MIC determination, microbroth dilution", "type": "cell-based", "settings": "Staphylococcus aureus (NRS70); read-out: MIC MRSA"}, "[6]": {"tested_on": "Haemophilus influenza (ATCC 49247)", "assay": "microbe, parasite or virus in culture", "type": "cell-based", "settings": "ATCC49247; Haemophilus influenza; 4 μg per disc; range of at least two experiments; read-out: Zone of inhibition H.i."}, "[7]": {"tested_on": "Klebsiella pneumoniae (ATCC 33495)", "assay": "MIC determination, microbroth dilution", "type": "cell-based", "settings": "ATCC33495"}, "[8]": {"tested_on": "Streptococcus pyogenes (ATCC 700294)", "assay": "MIC determination, microbroth dilution", "type": "cell-based", "settings": "ATCC700294; Streptococcus pyogenes (ATCC 700294); read-out: MIC S. py."}, "[9]": {"tested_on": "Bacillus anthracis", "assay": "microbe, parasite or virus in culture", "type": "cell-based", "settings": "read-out: MIC B.a."}, "[10]": {"tested_on": "Neisseria meningitides (ATCC 13077)", "assay": "Disc diffusion assay", "type": "cell-based", "settings": "ATCC13077, 4 μg per disc, read-out: Zone of inhibition N.m."}, "[11]": {"tested_on": "Yersinia pestis", "assay": "microbe, parasite or virus in culture", "type": "cell-based", "settings": "read-out: MIC Y.p."}, "[12]": {"tested_on": "Escherichia coli (ATCC 700926)", "assay": "MIC determination, microbroth dilution", "type": "cell-based", "settings": "ATCC700926; Escherichia coli (ATCC 700926); read-out: MIC E.c."}, "[13]": {"tested_on": "Staphylococcus aureus (ATCC 29213)", "assay": "MIC determination, microbroth dilution", "type": "cell-based", "settings": "ATCC29213; Staphylococcus aureus (ATCC 29213); read-out: MIC S.a."}, "[14]": {"tested_on": "live vaccine strain (LVS) of Francisella tularensis", "assay": "microbe, parasite or virus in culture", "type": "cell-based", "settings": "Francisella tularensis, read-out: MIC F.t."}, "[15]": {"tested_on": "Legionella pneumophila (ATCC 33153)", "assay": "microbe, parasite or virus in culture", "type": "cell-based", "settings": "ATCC33153, 72 h, read-out: Zone of inhibition L.p."}, "[16]": {"tested_on": "Pseudomonas aeruginosa (PA01)", "assay": "MIC determination, microbroth dilution", "type": "cell-based"}, "[17]": {"tested_on": "Proteus vulgaris (ATCC 33420)", "assay": "MIC determination, microbroth dilution", "type": "cell-based", "settings": "ATCC33420"}, "[18]": {"tested_on": "Bacillus anthracis, Sterne 34F2", "assay": "microbe, parasite or virus in culture", "type": "cell-based", "settings": "STERNE34F2, read-out: MIC B.a."}, "[19]": {"tested_on": "Stenotrophomonas maltophilia (ATCC 13637)", "assay": "MIC determination, microbroth dilution", "type": "cell-based", "settings": "ATCC13637; Stenotrophomonas maltophilia (ATCC 13637); read-out: MIC S.m."}, "[20]": {"tested_on": "Neisseria gonorrhoeae (ATCC 49226)", "assay": "Agar MIC determination (Alamar Blue)", "type": "cell-based", "settings": "ATCC49226, agar MIC, read-out: MIC N.g."}, "[21]": {"tested_on": "Listeria monocytogenes", "assay": "MIC determination (Table 6)", "type": "cell-based"}, "[22]": {"tested_on": "acinetobacter baumannii (ATCC 19606)", "assay": "MIC determination, microbroth dilution", "type": "cell-based", "settings": "ATCC19606"}, "[23]": {"tested_on": "M. tuberculosis clinical isolates", "assay": "microbe, parasite or virus in culture", "type": "cell-based", "settings": "Mycobacterium tuberculosis, H37RV, read-out: MIC H37Rv"}, "[24]": {"tested_on": "Bacillus subtilis (ATCC 23857)", "assay": "MIC determination, microbroth dilution", "type": "cell-based", "settings": "ATCC23857; Bacillus subtilis (ATCC 23857); read-out: MIC B.s."}, "[25]": {"tested_on": "Streptococcus pneumoniae clinical isolates representing several serotypes", "assay": "MIC determination, Streptococcus pneumoniae panel of clinical isolates (Table 7)", "type": "cell-based", "settings": "Streptococcus pneumoniae"}, "[26]": {"tested_on": "Neisseria gonorrhoeae (ATCC 49226)", "assay": "Disc diffusion assay", "type": "cell-based", "settings": "ATCC49226, 4 μg per disc, read-out: Zone of inhibition N.g."}, "[27]": {"tested_on": "Proteus mirabilis (ATCC 25933)", "assay": "MIC determination, microbroth dilution", "type": "cell-based", "settings": "ATCC25933"}, "[28]": {"tested_on": "Burkholderia cepacia (ATCC 25416)", "assay": "MIC determination, microbroth dilution", "type": "cell-based", "settings": "Burkholderia cepacia"}, "[29]": {"tested_on": "E. coli K12 ΔtolC", "assay": "microbe, parasite or virus in culture", "type": "cell-based", "settings": "Escherichia coli, read-out: MIC E.c. Δtolc"}}, "note": "Structures can show the parent of a compound that is named as a salt. Where two headings read alike, the source gives them in different places.", "data": [{"smiles": "NCC[C@H](O)C(=O)N[C@@H]1C[C@H](N)[C@@H](O[C@H]2O[C@H](CN)[C@@H](O)[C@H](O)[C@H]2O)[C@H](O)[C@H]1O[C@H]1O[C@H](CO)[C@@H](O)[C@H](N)[C@H]1O", "note": "[amikacin]", "values": [{"measurement": "susceptibility of mutants resistant to 2", "setting": "[1]", "result": "susceptible"}]}, {"smiles": "CCOc1ccc(CNC[C@]2(O)C[C@@H](C)O[C@H]3O[C@@H]4[C@@H](O)[C@H](NC)[C@H](O)[C@H](NC)[C@H]4O[C@]32O)cc1", "note": "[compound 4, 3′-(R)-3′-[(4-ethoxyl)benzylaminomethyl)]dihydrospectinomycin Trihydrochloride]", "values": [{"measurement": "MIC", "setting": "[2]", "result": "3.1 to 6.3", "unit": "µg/mL"}, {"measurement": "MIC", "setting": "[3]; Streptococcus pneumoniae (R6), read-out: MIC S. pn.", "result": "1.6 to 3.1", "unit": "µg/mL"}, {"measurement": "MIC", "setting": "[3]; Streptococcus pneumoniae, S. pneumoniae R6, Drug Susceptible, read-out: MIC R6", "result": 1.6, "unit": "µg/mL"}, {"measurement": "MIC", "setting": "[4]", "result": "12.5 to 25", "unit": "µg/mL"}, {"measurement": "MIC", "setting": "[5]", "result": 50, "unit": "µg/mL"}, {"measurement": "zone of inhibition at 4 µg/disc", "setting": "[6]", "result": "15 to 18", "unit": "mm"}, {"measurement": "MIC", "setting": "[7]", "result": "100 to 200", "unit": "µg/mL"}, {"measurement": "MIC", "setting": "[8]", "result": "1.6 to 3.1", "unit": "µg/mL"}, {"measurement": "MIC", "setting": "[9]", "result": 100, "unit": "µg/mL"}, {"measurement": "zone of inhibition at 4 µg/disc", "setting": "[10]", "result": "16 to 18", "unit": "mm"}, {"measurement": "MIC", "setting": "[11]", "result": "> 200", "unit": "µg/mL"}, {"measurement": "MIC", "setting": "[12]", "result": "25 to 50", "unit": "µg/mL"}, {"measurement": "MIC", "setting": "[13]", "result": "25 to 50", "unit": "µg/mL"}, {"measurement": "MIC", "setting": "[14]", "result": "0.8 to 3.1", "unit": "µg/mL"}, {"measurement": "zone of inhibition at 4 µg/disc", "setting": "[15]", "result": "18 to 33", "unit": "mm"}, {"measurement": "MIC", "setting": "[16]", "result": "100 to 200", "unit": "µg/mL"}, {"measurement": "MIC", "setting": "[17]", "result": "> 200", "unit": "µg/mL"}, {"measurement": "MIC", "setting": "[18]", "result": 100, "unit": "µg/mL"}, {"measurement": "MIC", "setting": "[19]", "result": "25 to 50", "unit": "µg/mL"}, {"measurement": "MIC", "setting": "[20]", "result": 12.5, "unit": "µg/mL"}, {"measurement": "MIC", "setting": "[21]", "result": "6.3 to 12.5", "unit": "µg/mL"}, {"measurement": "MIC", "setting": "[22]", "result": "≥ 200", "unit": "µg/mL"}, {"measurement": "MIC", "setting": "[23]", "result": 25, "unit": "µg/mL"}, {"measurement": "MIC", "setting": "[24]", "result": "12.5 to 25", "unit": "µg/mL"}, {"measurement": "MIC", "setting": "[25]; BAA1407, S. pneumoniae BAA-1407, Macrolide Resistant, read-out: MIC BAA-1407", "result": 6.3, "unit": "µg/mL"}, {"measurement": "MIC", "setting": "[25]; S. pneumoniae A66.1x, Drug Susceptible, read-out: MIC A66.1x", "result": 0.8, "unit": "µg/mL"}, {"measurement": "MIC", "setting": "[25]; S. pneumoniae BHN97x, Drug Susceptible, read-out: MIC BHN97x", "result": 1.6, "unit": "µg/mL"}, {"measurement": "MIC", "setting": "[25]; S. pneumoniae D39X, Drug Susceptible, read-out: MIC D39X", "result": 0.8, "unit": "µg/mL"}, {"measurement": "MIC", "setting": "[25]; S. pneumoniae Daw7, PenG Resistant, read-out: MIC Daw7", "result": 3.1, "unit": "µg/mL"}, {"measurement": "MIC", "setting": "[25]; S. pneumoniae Daw8, PenG Resistant, read-out: MIC Daw8", "result": 1.6, "unit": "µg/mL"}, {"measurement": "MIC", "setting": "[25]; S. pneumoniae Daw9, PenG Resistant, read-out: MIC Daw9", "result": 3.1, "unit": "µg/mL"}, {"measurement": "MIC", "setting": "[25]; S. pneumoniae Daw62, PenG Resistant, read-out: MIC Daw62", "result": 3.1, "unit": "µg/mL"}, {"measurement": "MIC", "setting": "[25]; S. pneumoniae Daw64, PenG Resistant, read-out: MIC Daw64", "result": 3.1, "unit": "µg/mL"}, {"measurement": "MIC", "setting": "[25]; S. pneumoniae OVA6, Macrolide Resistant, read-out: MIC OVA6", "result": 3.1, "unit": "µg/mL"}, {"measurement": "MIC", "setting": "[25]; S. pneumoniae T4X, Drug Susceptible, read-out: MIC T4X", "result": 1.6, "unit": "µg/mL"}, {"measurement": "zone of inhibition at 4 µg/disc", "setting": "[26]", "result": "15 to 17", "unit": "mm"}, {"measurement": "MIC", "setting": "[27]", "result": "> 200", "unit": "µg/mL"}, {"measurement": "MIC", "setting": "[28]; ATCC25416, read-out: MIC B.c., Burkholderia cepacia (ATCC 25416)", "result": "> 200", "unit": "µg/mL"}, {"measurement": "MIC", "setting": "[28]; ATCC25416, read-out: MIC B.c., Burkholderia cepacia, Table 6", "result": "> 200", "unit": "µg/mL"}, {"measurement": "MIC", "setting": "[29]", "result": 6.3, "unit": "µg/mL"}]}, {"smiles": "C[C@@H](O)[C@H]1C(=O)N2C(C(=O)O)=C(S[C@@H]3CN[C@H](C(=O)N(C)C)C3)[C@H](C)[C@H]12", "note": "[meropenem]", "values": [{"measurement": "susceptibility of mutants resistant to 2", "setting": "[1]", "result": "susceptible"}]}]}
